# Laboratory results from patent publication US11931368B2, “Glucocorticoid “nintedanib” particles and their use” (CRITITECH, INC., priority 2017, dated 2024).
# Columns and labels:
# [1] = Particle size distribution (volume, laser-light diffraction); type: physicochemical
# Excerpt: The particle size of the particles of all aspects disclosed herein can be determined by a particle size analyzer instrument and the measurement is expressed as the mean diameter based on a volume distribution (volume). A suitable particle size analyzer instrument is one which employs the analytical technique of […]. A suitable laser-light diffraction particle size analyzer instrument is the Mastersizer, such as the Mastersizer 3000, available from Malvern Instruments, United Kingdom.
# [2] = Specific surface area by BET isotherm; type: physicochemical
# Procedure: As used herein, the “specific surface area” (SSA) is the total surface area of the particle per unit of compound mass as measured by the Brunauer-Emmett-Teller (“BET”) isotherm by the following method: a known mass between 200 and 300 mg of the analyte is added to a 30 mL sample tube. The loaded tube is then mounted to a Porous Materials Inc. SORPTOMETER®, model BET-202A. The automated test is then carried out using the BETWIN® software package and the surface area of each sample is subsequently calculated. Such an increase in SSA results in significant increases in dissolution rates in relevant media as compared to therapeutic particles produced by conventional means. The “therapeutic particles” can include both agglomerated therapeutic particles and non-agglomerated therapeutic particles; since the SSA is determined on a per gram basis it takes into account both agglomerated and non-agglomerated therapeutic particles in the composition. The BET specific surface area test procedure is a compendial method included in both the United States Pharmaceopeia and the European Pharmaceopeia.
SMILES,Dv10 [1],Dv50 [1],Dv90 [1],SSA (specific surface area) [2]
"CCC(=O)O[C@]1(C(=O)SCF)[C@H](C)C[C@H]2[C@@H]3C[C@H](F)C4=CC(=O)C=C[C@]4(C)[C@@]3(F)[C@@H](O)C[C@@]21C [Raw fluticasone, fluticasone propionate]",10.9 μm,39.0 μm,74.4 μm,4.11 m^2/g
"COC(=O)c1ccc2c(c1)NC(=O)/C2=C(\Nc1ccc(N(C)C(=O)CN2CCN(C)CC2)cc1)c1ccccc1 [Raw nintedanib, nintedanib]",10.5 μm,36.8 μm,70.2 μm,4.11 m^2/g
